Values of other authors in publication PMC3294027 (Methods (San Diego, Calif.), 2011).
Like-named read-outs stand apart in the source and are kept apart here.

Columns and labels:
[1] = system: antibody 2D12.5; settings: 0.1 M sodium phosphate, pH 7.0, SD in parentheses
[2] = system: antibody 2D12.5; settings: for Half-life / koff: TBS pH 7.4, Avg(SD); for Calc kon: calculated as koff/KD

| Substance | KA ([1]; 30 °C) | Kd ([1]; 30 °C) | ΔG ([1]; 30 °C) | ΔH ([1]; 30 °C) | ΔS ([1]; 30 °C) | KA ([1]; 37 °C) | Kd ([1]; 37 °C) | ΔG ([1]; 37 °C) | ΔH ([1]; 37 °C) | ΔS ([1]; 37 °C) | Half-life ([2]; 30°C) | koff ([2]; 30°C) | Calc kon ([2]; 30°C) | Half-life ([2]; 37°C) | koff ([2]; 37°C) | Calc kon ([2]; 37°C) |
| --- | --- | --- | --- | --- | --- | --- | --- | --- | --- | --- | --- | --- | --- | --- | --- | --- |
| cobalt(II) S-2-(4-aminobenzyl)-1, 4, 7, 10-tetraazacyclododecanetetraacetate [ABD(Co)] | 8.2(±0.9) ×10^5 M^−1 | 1200 nM | −8.2(±0.1) kcal/mol | −12.2(±0.4) kcal/mol | −13.2(±1.3) cal/mol-K | 7.1(±0.4) ×10^5 M^−1 | 1400 nM | −8.3(±0.1) kcal/mol | −12.4(±4.8) kcal/mol | −13.3(±4.8) cal/mol-K | – | – | – | – | – | – |
| yttrium S-2-(4-aminobenzyl)-1, 4, 7, 10-tetraazacyclododecanetetraacetate [ABD(Y)] | 3.3(±2.1) ×10^8 M^−1 | 3.1 nM | −11.7(±0.4) kcal/mol | −18.2(±0.5) kcal/mol | −21.5(±2.9) cal/mol-K | 5.2(±0.9) ×10^8 M^−1 | 2 nM | −12.4(±0.2) kcal/mol | −20.1(±1.2) kcal/mol | −24.9(±4.1) cal/mol-K | 2.68 ± 0.217 min | 4.0(±0.3) x10^−3 s−1 | 1.3e+06 M⁻¹ s⁻¹ | 1.62 ± 0.15 min | 7.0(±0.7) ×10^−3 s−1 | 3.5e+06 M⁻¹ s⁻¹ |
